In paper PMC7838189, “Natural podophyllotoxin analog 4DPG attenuates EMT and colorectal cancer progression via activation of checkpoint kinase 2” (Cell Death Discovery, 2021):

Experiments:
[1] = tested on: HCT-116, SW-620, and HT-29 cells; test: Western blotting of p-Vimentin/Vimentin after transient 5-FU treatment; assay type: cell-based; details: 5-FU 1 µM (sub-toxic), 24 h; range over HCT-116, SW-620, HT-29 cells; densitometry
Text: Vimentin belongs to the family of intermediate filament proteins that are known to function in maintaining the shape as well as the integrity of the normal mesenchymal cells[33],[34]. However, it has been established to regulate the cell shape and migration capability during EMT, a phenomenon critical to metastasis of cancer cells[35],[36]. To investigate any plausible contribution of Vimentin to 5-FU resistance in CRC, we treated a panel of three epithelial colorectal carcinoma cell lines (HCT-116, SW-620, and HT-29) with increasing concentrations of the said drug, transiently (24 h). Western blots were generated for the whole-cell lysates obtained from the above set of experiments. Since the phosphorylated Vimentin is an important signal transducer during the EMT process, we analyzed p-Vimentin (ser38) as well as total Vimentin levels in these lysates.
Fig. 1 Vimentin activation and the onset of EMT in CRC cells transiently exposed to 5-FU, as well as in 5-FU-resistant population. […] F Quantification of the number of invaded cells per field from the above invasion assay experiment. n = 3, error bars: mean ± SD; ***P < 0.001. […]
We adhered to the previously published protocol for western blotting. […] Bradford assay was performed to quantify the protein concentration. […]

HCT-116/5-FU-R cells [2] = test: Acquired 5-FU resistance (MTT cytotoxicity assay); assay type: cell-based; details: cells selected with increasing 5-FU for at least 20 weeks
Experimental: (§1) Previously described procedure by Shukla et al. was followed with minor modifications. In brief, wild-type CRC cells (HCT-116, SW-620, and HT-29) were cultured with increasing concentrations of 5-FU for at least 20 weeks. The acquired drug resistance was tested periodically by determining the half maximal inhibitory concentration (IC50) of 5-FU through MTT cytotoxicity assays.
(§2) The experiments were performed using the wild-type and 5-FU-RCRC cells following our standardized protocols, as described previously[56],[57].

HT-29/5-FU-R cells = test: Acquired 5-FU resistance (MTT cytotoxicity assay); assay type: cell-based; details: cells selected with increasing 5-FU for at least 20 weeks
Experimental: as §1, §2

SW-620/5-FU-R cells [3] = test: Acquired 5-FU resistance (MTT cytotoxicity assay); assay type: cell-based; details: cells selected with increasing 5-FU for at least 20 weeks
Experimental: as §1, §2

[4] = tested on: orthotopic rat colorectal carcinoma; details: 25 mg/kg thrice a week for 3 weeks
Text: To examine the antitumor and anti-metastatic efficacy of 4DPG in vivo, we employed a carcinogen-induced orthotopic rat colorectal carcinoma model. […] The schematic representation briefly describes the steps involved in the generation of orthotopic colorectal tumors along with the treatment strategy and further analysis (details in “Materials and methods”). The animals were euthanized at the end of the experiment and evaluated for tumor and metastatic burden (Fig. 4A). […] To validate whether our in vitro observations on mechanistic inhibition of EMT and invasion by 4DPG hold true in vivo, we performed immunohistochemical analysis of the tumor tissues acquired from the saline and 4DPG-treated animal groups.
A Model depicting the procedure adopted for generating the carcinogen-induced orthotopic rat CRC model, treatment strategies of 4DPG, evaluation of tumor burden, and further biochemical analysis. B Representative images of large bowel showing the colorectal tumor growth in saline, 5-FU (25 mg/kg), and 4DPG (25 mg/kg) treated groups of animals. C, D Quantification of tumor volume and number of polyps per rat in above groups of animals. n = 6 rats per group, error bars: mean ± SD; *P < 0.05, **P < 0.01, ***P < 0.001. E Representative images of the lungs dissected from the above groups of animals showing metastatic tumor burden. Orange arrows indicating bumps of secondary tumors over each lobe of lungs. F, G Quantification of a number of macroscopic secondary tumors over the lung tissues and lung weight in the above groups of animals. n = 6 rats per group, error bars, mean ± SD; **P < 0.01, ***P < 0.001. […] Scale bar: 50 µm. I Western blots depicting expression of p-Chk2 (Thr68), Chk2, p53, p-Vimentin (Ser38), and Vimentin in tumor tissues obtained from saline- and 4DPG-treated groups of animals. β-Actin expression was taken as endogenous loading control. J Densitometry analysis of the above western blot bands portraying relative protein expression of the markers presented. n = 3, error bars: mean ± SD; **P < 0.01, ***P < 0.001.
Animal studies were performed following the guidelines approved by Institutional Animal Ethics Committee (IAEC No. 51/02/15) of CSIR-Indian Institute of Integrative Medicine, Jammu, India. The experiment was performed according to our standardized protocol described previously with necessary modifications. Five-weeks-old healthy male Wistar rats (body weight 150–200 g) were maintained in aseptic condition with free access to food and water. Animals were randomized into three groups, with six animals per group. All the rats received intrarectal instillation of 0.5 mL of freshly prepared 0.4% aqueous solution of N-methyl-N-nitrosourea (MNU) thrice a week for 3 weeks, for the orthotopic induction of colorectal tumors. The solution was injected using sterile syringe with attached 8-cm long rubber catheter tube inserted two-thirds into the colon lumen through anal orifice, as described previously. The animals were kept under continuous monitoring, and the body weight was measured once per week. Following 22 weeks after the initiation of MNU administration, treatment regimens were started by administering 5-FU (25 mg/kg), and 4DPG (25 mg/kg) thrice a week for 3 weeks. The control and treatment groups of animals were dosed separately by three independent investigators and the outcomes were assessed by a fourth investigator blind about the dosing process and treatment regimen.

SW-620/5-FU-R cells [5] = test: Immunocytochemistry of Vimentin; assay type: cell-based; details: PV1019 alone, 48 h
Text: 4DPG, a podophyllotoxin class of natural product anticancer compound (Supplementary Fig. S2A) has been recently described by our research group for its potent antitumor and anti-metastatic properties against aggressive cancers[31],[32]. Further, 4DPG augments phosphorylation and activation of Chk2 (Thr68) leading to suppression of EMT and invasiveness of p53-defective cancer cells. To investigate the effect of 4DPG on phosphorylation and expression levels of Chk2 in HCT-116/5-FU-R, SW-620/5-FU-R, and HT-29/5-FU-R cells, we treated these cells for 48 h with increasing concentrations of the compound, and whole-cell lysates were subjected to western blotting analysis. […] To determine the effect of 4DPG on the invasion abilities of these 5-FU-R cells, we performed in situ fluorescent gelatin degradation assay following our pre-standardized protocol[31],[37]. In physiological conditions, this assay mimics the extracellular matrix degradation by aggressive tumor cells undergoing invasion–metastasis process.
(§3) To examine whether 4DPG-mediated repression of Vimentin and invasiveness is a Chk2-dependent process, we performed genetic silencing of endogenous Chk2 in the 5-FU-R cells using target-specific SiRNAs.
(§4) Fig. 3 Chk2-dependent role of 4DPG in modulating p53 and repressing Vimentin expression in 5-FU-R cells. A Immunocytochemistry results showing the Vimentin expression level in SW-620/5-FU-R cells treated/transfected with scramble, SiChk2, scramble plus 4DPG, SiChk2 plus 4DPG, vehicle, PV1019, 4DPG, and PV1019 plus 4DPG for 48 h. Scale bars: 50 µm. […] C Matrigel invasion assay results showing invaded HCT-116/5-FU-R and SW-620/5-FU-R cells following 48 h of transient transfection with GFP and GFP-Chk2 plasmid construct. Scale bars: 50 µm. D Quantification of the number of invaded cells per field from the above experimental conditions. n = 3, error bars, mean ± SD; *P < 0.05, ***P < 0.001. E Immunocytochemistry results displaying Vimentin expression levels in HCT-116/5-FU-R and SW-620/5-FU-R cells after 48 h of transient transfection with pCDNA3 and/or HA-Chk2 plasmid construct. Scale bars: 50 µm. F Immunoprecipitation with Vimentin or p53 followed by western blotting analysis of p53 in SW-620/5-FU-R cells treated with vehicle and/or 4DPG (300 nM) for 48 h. G Cytosolic (left panel) and nuclear (right panel) extracts of SW-620/5-FU-R cells treated with vehicle and/or 4DPG (300 nM) for 48 h showing protein expression of Vimentin and p53. Tubulin and lamin expression was considered as endogenous loading controls for cytosolic and nuclear fractions, respectively.
We followed the standard protocol with some modifications for immunocytochemistry[56],[58]. In brief, cells, at a density of 4 × 10^5 cells/well, were seeded over the sterile coverslips placed in six-well plates. Following the respective treatment, cells were washed thrice with PBS. Next, the cells were fixed with 4% paraformaldehyde (pH = 7.4) for 15 min, permeabilized with 0.3% Triton X-100 for 10 min, and then blocked with 1% goat serum for 30 min. Consequently, the cells were incubated with anti-Vimentin antibody overnight at 4 °C, at a dilution of 1:100, followed by washing with PBST and further incubation with secondary anti-rabbit Alexa Fluor 488 (1:750 dilution). After subsequent washing and mounting, the images were captured at ×20 magnification under Floid Cell Imaging Station (Invitrogen).

HCT-116/5-FU-R cells [6] = test: Matrigel invasion assay; assay type: cell-based; details: PV1019-treated, 48 h
Text: as §3
as §4, with “G Cytosolic (left panel) and nuclear (right panel) extracts of SW-620/5-FU-R cells treated with vehicle and/or 4DPG (300 nM) for 48 h showing protein expression of Vimentin and p53. Tubulin and lamin expression was considered as endogenous loading controls for cytosolic and nuclear fractions, respectively.” left out

SMILES | boost in p-Vimentin (ser38) [1] | increase in Vimentin expression level [1] | acquired resistance up to (5-FU concentration) (HCT-116/5-FU-R cells [2]) | acquired resistance up to (5-FU concentration) (HT-29/5-FU-R cells) [µM] | acquired resistance up to (5-FU concentration) (SW-620/5-FU-R cells [3]) [µM] | lung metastases [4] | average number of polyps ([4]; control group 16) | mean tumor volume ([4]; saline control 820.6 mm^3) [mm^3] | Vimentin level (immunocytochemistry) (SW-620/5-FU-R cells [5]) | number of invaded cells (HCT-116/5-FU-R cells [6])
O=c1[nH]cc(F)c(=O)[nH]1 [5-FU, 5-fluorouracil] | 2–7.8 fold | 2.1–8.5 fold | up to 50 µM | ≤ 45 | ≤ 60 | could not restrict the metastatic spread | 8 | 231 |  | 
CC(=NNC(=N)N)c1ccc(NC(=O)c2cc3cccc([N+](=O)[O-])c3[nH]2)cc1 [PV1019, 7-nitro-1H-indole-2-carboxylic acid {4-[1-(guanidinohydrazone)-ethyl]-phenyl}-amide, reference compound] |  |  |  |  |  |  |  |  | increased Vimentin level | remarkable increase
